Results reported in patent US9057727B2, “Screening methods using G-protein coupled receptors and related compositions” (The General Hospital Corporation, priority 2007, dated 2015).
pEC50, pIC50: −log10 of the molar value. Like-named read-outs stand apart in the source and are kept apart here. Peptide text beside a SMILES is read from it.

How the values were obtained:
SaOS cells = test: cAMP production in SaOS cells, dose-response; format: cell-based
MC3T3-E1 cells = test: cAMP in MC3T3-E1 cells, dose-response; format: cell-based
Method: In the 1-30 scaffold, Gly, Ser, Leu, Asn, Gln, Trp, Glu, and Lys were substituted at position 29; Gly, Ser, Leu, Asn, Asp, Trp, and Lys were substituted at position 30; and Ser, Leu, Asn, Val, Trp, Glu, and Lys were substituted at position 31. […] These peptides were tested for cAMP activity in MC3T3-E1 cells.

[1] = target: T1, human PTHR, G protein-coupled conformation (RG) (Homo sapiens, UniProt Q03431); test: Competition binding to RG conformation of hPTHR (COS-7 membranes, GαsND, 125I-[Aib1,3,M]PTH(1-15) tracer); conditions: for pIC50: Table 2, read-out: RG binding affinity hPTHR IC50
T1 construct: expressed in transfected cells; host or cells: COS-7, transient (Fugene-6); membranes
T1 sequence (Q03431 27-593): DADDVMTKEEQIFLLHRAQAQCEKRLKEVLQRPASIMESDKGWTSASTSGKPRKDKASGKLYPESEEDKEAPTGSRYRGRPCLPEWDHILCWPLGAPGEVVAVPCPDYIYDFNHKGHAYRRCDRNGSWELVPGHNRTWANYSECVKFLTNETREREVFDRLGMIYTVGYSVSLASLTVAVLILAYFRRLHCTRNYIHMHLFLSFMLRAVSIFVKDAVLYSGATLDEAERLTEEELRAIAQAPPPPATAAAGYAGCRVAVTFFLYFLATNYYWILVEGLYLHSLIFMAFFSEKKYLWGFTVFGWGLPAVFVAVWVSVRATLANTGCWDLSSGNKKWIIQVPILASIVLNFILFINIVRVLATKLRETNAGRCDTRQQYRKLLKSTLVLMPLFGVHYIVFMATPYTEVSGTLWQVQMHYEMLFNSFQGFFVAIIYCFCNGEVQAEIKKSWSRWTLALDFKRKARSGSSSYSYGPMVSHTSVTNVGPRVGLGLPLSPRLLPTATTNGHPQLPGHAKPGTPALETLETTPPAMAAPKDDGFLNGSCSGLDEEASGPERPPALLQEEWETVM

[2] = target: T2, human PTHR, G protein-uncoupled conformation (R^0) (Homo sapiens, UniProt Q03431); test: Competition binding to R0 conformation of hPTHR (COS-7 membranes, GTPγS, 125I-PTH(1-34) tracer); conditions: Table 2; for R0/RG selectivity: hPTHR; for pIC50: read-out: R^0 binding affinity hPTHR IC50
T2 construct: expressed in transfected cells; host or cells: COS-7, transient (Fugene-6)
T2 sequence (Q03431 27-593): T1 sequence (Q03431 27-593)
How it was run: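 Bound versus free radioligand was separated by vacuum filtration after 90 min incubation of COS-7 hPTHR membranes (20-100 μg/mL) with tracer and competing peptides. Non-specific binding came from a saturating unlabeled analog.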

[3] = tested on: LLCPK1-B64 cells or SaOS-2 cells; test: cAMP screen of substituted PTHrP(1-28) analogs (% parent); format: cell-based; conditions: parent PTHrP(1-28)NH
How it was run: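 LLCPK1-B64 or SaOS-2 cells exposed to peptide analogs at 3×10^−9M with IBMX for 30 minutes at room temperature, then cAMP measured. Each analog's response expressed as percentage of that for parent PTHrP(1-28).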

human PTH1 receptor = target: T3, human PTH1 receptor (Homo sapiens, UniProt Q03431); test: cAMP signaling dose-response in HKRK-B7 cells; format: cell-based; conditions: 15 min, 37° C., IBMX
T3 construct: expressed in transfected cells
T3 sequence (Q03431 27-593): T1 sequence (Q03431 27-593)
Method: In the cAMP experiments of FIG. 14, HKRK-B7 were seeded in 96 well plates at 1×10^5 cells/well and incubated overnight. On the following day, the cells were washed once with […] of binding buffer (50 mM Tris-HCl, pH 7.7, 100 mM NaCl, 5 mM KCl, 2 mM CaCl2, 5% heat-inactivated horse serum, 0.5% heat-inactivated fetal bovine serum), followed by addition of 100 μl cAMP assay buffer (DMEM, 2 mM IBMX, 1 mg/ml bovine serum albumin, 35 mM Hepes-NaOH, pH 7.4) on ice. […] After removing the medium, the plates were placed on powdered dry ice to freeze the cells and then removed from dry ice. The cells were thawed with 50 μl of 50 mM HCl and frozen again on dry ice. The level of intracellular cAMP was measured with a commercially available cAMP EIA kit (Biotrack cAMP EIA system, GE Healthcare).
HKRK-B, which are LLC-PK1 cells over-expressing human PTH1 receptor at levels of 9.5×10^5 per cell were used in the cAMP signaling assay. The cells were cultured at 37° C. in a humidified atmosphere containing 5% CO2 in Dulbecco's modified Eagle's medium (DMEM), supplemented with 10% fetal bovine serum (Hyclone), 100 units/ml penicillin G, and 100 μg/ml streptomycin sulfate (Invitrogen Corp). […] All peptides were dissolved at 1 mM in 10 mM acetic acid, and stored at −80° C. The cAMP stimulation assay was performed as described above for HKRK-B7 cells. […] Cells were treated for 15 minutes at 37° C. with varying concentrations of ligands in the presence of IBMX.

[4] = Plasma cAMP in C57BL/6 mice after intravenous injection; format: in vivo; conditions: i.v. (Example 4)
[5] = Table 2, read-out: SaOS camp EC50
[6] = Table 3, read-out: dose-response cAMP in SaOS (EC50)
[7] = Table 2, read-out: MC3T3-E1 cAMP EC50

Row | pEC50 (SaOS cells; [5]) | pEC50 (SaOS cells; [6]) | pEC50 (MC3T3-E1 cells; [7]) | pEC50 (MC3T3-E1 cells; Table 3, read-out: dose-response cAMP in MC3T3-E1 (EC50)) | pIC50 [1] | R0/RG selectivity [2] | pIC50 [2] | cAMP in HKRK-B7 cells Max (human PTH1 receptor) [pm/well] | Compound | cAMP-inducing activity compared with parent, in words (SaOS cells) | cAMP potency and RG binding affinity compared with PTH(1-34), in words [1] | screen cAMP (% parent) [3] [% parent] | plasma cAMP 10 minutes after injection, in words [4]
1 | 11.70 | 11.70 | 10.27 | 10.27 | 10.40 | 6971 | 6.51 | 56.4 | CC[C@H](C)[C@H](NC(=O)[C@H](CC(C)C)NC(=O)[C@H](CCCCN)NC(=O)[C@H](CC(C)C)NC(=O)[C@H](CC(C)C)NC(=O)[C@H](Cc1ccccc1)NC(=O)[C@H](C)NC(=O)[C@H](CCCNC(=N)N)NC(=O)[C@H](CCCNC(=N)N)NC(=O)[C@H](CCCNC(=N)N)NC(=O)[C@H](C)NC(=O)[C@H](CC(=O)O)NC(=O)[C@H](CCC(N)=O)NC(=O)[C@@H](NC(=O)[C@H](CO)NC(=O)[C@H](CCCCN)NC(=O)CNC(=O)[C@H](CCCCN)NC(=O)[C@H](CC(=O)O)NC(=O)[C@H](Cc1c[nH]cn1)NC(=O)[C@H](CC(C)C)NC(=O)[C@H](CC(C)C)NC(=O)[C@H](CCC(N)=O)NC(=O)[C@H](Cc1c[nH]cn1)NC(=O)[C@H](CCC(=O)O)NC(=O)[C@H](CO)NC(=O)[C@@H](NC(=O)[C@H](C)N)C(C)C)[C@@H](C)CC)C(N)=O [A18, 22, L25, K26-PTHrP(1-28)NH, A18,22,L25,K26-PTHrP(1-28)] (H-AVSEHQLLHDKGKSIQDARRRAFLLKLI-NH2; N-terminus assumed) | Marked enhancements of cAMP-inducing activity | cAMP potency and RG binding affinity that is greater than that of PTH(1-34) | 305 | Marked enhancements
2 | 11.00 | 11.00 | 10.08 | – | 10.00 | 18317 | 5.76 | – | CC[C@H](C)[C@H](NC(=O)[C@H](CC(C)C)NC(=O)[C@H](CCCCN)NC(=O)[C@H](CC(C)C)NC(=O)[C@H](CC(C)C)NC(=O)[C@H](Cc1ccccc1)NC(=O)[C@H](C)NC(=O)[C@H](CCCNC(=N)N)NC(=O)[C@H](CCCNC(=N)N)NC(=O)[C@H](CCCNC(=N)N)NC(=O)[C@H](CCC(=O)O)NC(=O)[C@H](CC(=O)O)NC(=O)[C@H](CCC(N)=O)NC(=O)[C@@H](NC(=O)[C@H](CO)NC(=O)[C@H](CCCCN)NC(=O)CNC(=O)[C@H](CCCCN)NC(=O)[C@H](CC(=O)O)NC(=O)[C@H](Cc1c[nH]cn1)NC(=O)[C@H](CC(C)C)NC(=O)[C@H](CC(C)C)NC(=O)[C@H](CCC(N)=O)NC(=O)[C@H](Cc1c[nH]cn1)NC(=O)[C@H](CCC(=O)O)NC(=O)[C@H](CO)NC(=O)[C@@H](NC(=O)[C@H](C)N)C(C)C)[C@@H](C)CC)C(N)=O [E18, A22, L25, K26-THrP(1-28)NH, E18,A22,L25,K26-PTHrP(1-28)] (H-AVSEHQLLHDKGKSIQDERRRAFLLKLI-NH2; N-terminus assumed) | Marked enhancements of cAMP-inducing activity | – | 340 | Marked enhancements
